Experimental data as given in patent publication US8039501B2, “Synephrine derivatives useful as anti-inflammatory agents” (Universiteit Gent, priority 2005, dated 2011).
Like-named read-outs stand apart in the source and are kept apart here.

Tests used:
[1] = MTT test, cell viability of A549 cells; assay type: cell-based, human; conditions: human, A549 lung epithelial (carcinoma) cells, read-out: Block of A549 cell viability
Protocol: (§1) The MTT test is a standard assay addressing cell toxicity of a compound. It is based on the principle that after 3-4 hours of cell incubation with MTT (3-(4,5-dimethylthiazole-2-yl)-2,5-diphenyl tetrazolium bromide) so-called purple formazan crystals develop in living and early apoptotic cells. Dead cells don't produce formazan crystals.
(§2) Different cell lines were tested. Unless indicated differently, A549 human lung epithelial cells (derived from lung carcinoma) and L929sA murine fibroblast cells were cultured in DMEM with 10% FCS, 100 U/ml penicillin and 100 μg/ml streptomycin. Unless indicated differently, the human multiple myeloma cell lines L363, U266 and MM1.S were cultured in RPMI 1640 with Glutamax-I, supplemented with 10% FCS, 100 U/ml penicillin and 100 μg/ml streptomycin. Cells were seeded at 5000 cells/well (for adherent A549 and L929sA cells) or at 10000 cells/well (for the multiple myeloma lines in suspension) in 96 well plates. Cells were incubated in the presence of the respective synephrine compounds or vehicle (EtOH; for control test) in a final volume of 0.2 ml for 24 or 48 hours at 37° C. Subsequently, 20 μl of MTT solution (5 mg/ml in phosphate-buffered saline) was added to each well. After 4 hours incubation at 37° C., 80 μl of the extraction buffer (10% SDS, 0.01 M HCl) was added. After overnight incubation at room temperature, the optical densities at 590 nm were measured. Results are illustrated in FIGS. 2 to 6 and are expressed as percentage of viable cells as compared to vehicle-treated controls.
(§3) In a further MTT test, the activity of the synephrine derivatives on the inhibition of cell viability of non-immune cells was measured. […] Tests were performed for 24 hours and for 48 hours. The results are illustrated by FIGS. 5A and 5B for L929 cells, and by FIGS. 6A and 6B for A549 cells. It was observed that CpdA at 10^−5 M blocked cell viability of L929sA and A549 for not more than 10%.

[2] = tested on: Saos-2; test: Q-PCR gene expression in osteosarcoma cell-line Saos-2; assay type: cell-based, human; conditions: 10 μM
Protocol: CpdA was synthesized as described previously. […] They were sacrificed and livers were isolated. […] Gene expression of HPRT was used for normalization. […] Gene expression of HPRT was used for normalization. […] Gene expression of HPRT was used for normalization. Statistical significance was determined by one way anova. […] Gene expression of HPRT was used for normalization. […] Gene expression of HPRT was used for normalization. Statistical significance was determined by one way anova. […] Statistical significance was determined with a Kruskal-Wallis test.

[3] = tested on: NF-κB; test: EMSA of NF-κB DNA binding in Namalwa B cells; assay type: cell-based, human; conditions: 10, 0.1, 0.01, 0.001 μM, TNF 2000 IU/ml, FIG. 8B
[4] = Serum ELISA of osteoclast and osteoblast markers in DBA/1 mice; conditions: 300 μg daily, 8 days
Text: DBA/1 mice—Male 8- to 12-wk-old DBA/1 mice were purchased from Janvier and housed following institutional guidelines. All animal procedures were approved by the institutional animal care and ethics committee. […] The human IL-6 and IL-8 cytoset were purchased from BioSource International, Inc. For the detection of TRAP5b in DBA/1 mice serum we used the Mouse TRAP Assay, purchased from Immunodiagnostic systems limited. The osteocalcin EIA kit was purchased from Biomedical Technologies, Inc. All assays were performed according to the manufacturer's instructions.

[5] = tested on: multiple myeloma cells U266; test: MTT test, cell viability of U266 cells; assay type: cell-based, human
Protocol: as §1, §2
The MTT test was further extended to include alternative synephrine derivatives and a range of multiple myeloma cell lines for which the results are illustrated by FIGS. 3A, 3B and 4A. Human multiple myeloma cell lines L363, U266 and MM1.S were cultured in RPMI 1640 with Glutamax-I, supplemented with 10% FCS, 100 U/ml penicillin and 100 μg/ml streptomycin. Cells were seeded at 10000 cells/well in 96 well plates. Cells were incubated in the presence of test compounds or vehicle in a final volume of 0.2 ml for 24 or 48 hours at 37° C. The test compounds included in the test were the synephrine derivatives CpdA, Naphth, Benz and Isobut, and DEX as a comparative example. Subsequently, 20 μl of MTT solution (5 mg/ml in phosphate-buffered saline) was added to each well. After 4 hours incubation at 37° C., 80 μl of the extraction buffer (10% SDS, 0.01 M HCl) was added. After 48 hours incubation at room temperature, the optical densities at 590 nm were measured. Results are expressed as percentage of viable cells as compared to vehicle-treated controls.

[6] = MTT test, cell viability of L929sA fibroblasts; assay type: cell-based, murine; conditions: mouse, L929sA fibroblast cells, read-out: Block of L929sA cell viability
Protocol: as §1, §2, §3

[7] = tested on: MM1.S cell lines; test: Annexin V/PI assay in MM1.S cells; assay type: cell-based, human; conditions: 10^-5 M, FIG. 13
Protocol: 1. […] Procedure: • Human multiple myeloma cell lines L363, U266, MM1.S and MMR.1 are cultured in RPMI 1640 with Glutamax-I, supplemented with 10% FCS, 100 U/ml penicillin and 100 μg/ml streptomycin. Cells are counted and resuspended in fresh medium at a concentration of 1×10^6/ml. Next, 1 ml of cell suspension is transferred to 5 ml culture tubes in the presence of test compounds (DEX, CpdA, CpdA analogues: 10^−7 to 10^−4 M) or vehicle (EtOH) and incubated for 24 or 48 hours at 37° C. • Double-staining of the cells with PI and annexin V is performed according to the instructions of the Annexin V kit (BD Biosciences). • Double-stained cells are analyzed by flow cytometry. […] Graphs are represented as the ratio of early apoptotic cells versus late apoptotic cells (a) or as total % of living cells (b).

CNCC(Cl)c1ccc(OC(C)=O)cc1.Cl (stereo not drawn) [CpdA, 2-(4-acetoxyphenyl)-2-chloro-N-methyl-ethylammonium chloride]
cytotoxicity at 24 h ([1]; 10^−4 M, 24 hours, FIG. 6A): 20% | cytotoxicity at 48 h ([1]; 10^−4 M, 48 hours, FIG. 6B): 40% | cytotoxicity ([1]; 10^−5 M, 24 hours and 48 hours, FIGS. 6A and 6B): ≤ 10% | RANKL/OPG ratio ([2]; 24 hours): does not alter the RANKL/OPG ratio | Expression of osteoclast differentiation markers M-CSF and RANKL ([2]; 24 hours, FIG. 15, RANKL solvent versus CpdA p>0.05): does not stimulate the expression | Expression of OPG ([2]; 24 hours, FIG. 15, solvent versus CpdA p>0.05): does not down-regulate the expression of OPG | Expression of pro-inflammatory mediators (anti-inflammatory effect) ([2]; TNF 2000 U/ml 6 hours, FIG. 16): anti-inflammatory effect | NF-κB binding to kB DNA sequence (EMSA) [3]: inhibits NF-κB binding to kB DNA sequence | Amount of active osteoclasts (TRAP5b) in serum ([4]; FIG. 21A): does not alter the amount of active osteoclasts (TRAP5b) | Osteocalcin levels in mouse serum ([4]; FIG. 21B): does not significantly alter the osteocalcin levels in mouse serum | Cell killing of U266 cells ([5]; 10^−4M, serum-containing medium, FIG. 2B): 60% | Cell killing of U266 cells ([5]; 10^−5M, growth medium with 10% fetal calf serum, 48 hours, FIG. 2B): 10% | Cell killing of U266 cells ([5]; 10^−5M, serum-free growth medium, 24 hours, FIG. 2A): 60% | Effect on cell viability of U266 cells ([5]; 10^−6 to 10^−5 M, 10% FCS, FIG. 3A): 15-20% | cytotoxicity at 100 µM ([5]; Homo sapiens, U-266, 10^−4 M, 10% FCS, FIG. 3A, read-out: Block of U266 cell viability / cell killing): 40% | cytotoxicity at 100 µM ([5]; Homo sapiens, U-266, 10^−4M, serum-free medium, FIG. 2A, read-out: Cell killing / reduction of viability of U266 cells): 80% | cytotoxicity at 1 µM ([5]; Homo sapiens, U-266, 10^−6M, serum-free growth medium, 24 hours, FIG. 2A, read-out: Inhibition of viability of U266 cells): 40% | cytotoxicity at 24 h ([6]; 10^−4 M, 24 hours, FIG. 5A): 20% | cytotoxicity at 48 h ([6]; 10^−4 M, 48 hours, FIG. 5B): 60% | cytotoxicity ([6]; 10^−5 M, 24 hours and 48 hours, FIGS. 5A and 5B): ≤ 10% | Apoptosis (Annexin V/PI staining) [7]: able to mediate apoptosis in the MM1.S cell lines at 10-5 M, to a much higher extent than Dex
